Test results: US20100267763A1, “Method of Decreasing Pro-ADAM10 Secretase and/or Beta Secretase Levels” (priority 2009, published 2010)
Entries after “also recorded” stand apart in the source; their conditions may differ. Where two headings read alike, the source gives them in different places.

Experiments:
Neuro2a cells = experiment: Aβ production by Neuro2a cultured cells, ELISA of culture medium; format: cell-based, murine; details: 24 hours of treatment, vs control
Procedure: Neuro2a is a murine neuroblastoma cell line that is known to produce amyloid peptides Aβ1-40 and Aβ1-42 in amounts measurable by ELISA assays. These forms of Aβ have been correlated with the pathology in AD brain and Aβ1-42 in particular is postulated to have the ability to block α7 nicotinic receptors and to produce direct neurotoxic effects. Neuro2a cells were treated for 24 hours with ST101 added to the tissue culture medium. Tissue culture medium was collected and analyzed by ELISA for the presence of Aβ.
FIGS. 1A and 1B are bar graphs that depict the effect of the compound ST101 on Aβ production by Neuro2a cells. FIG. 1A is a bar graph that depicts the Aβ concentration in the cell culture medium as a function of ST101 concentration compared to control. FIG. 1B a bar graph that depicts the ratio of Aβ1-42 to Aβ1-40 as a function of ST101 concentration compared to control.

Presenilin 1 = experiment: Western blot of Presenilin 1 in brain extracts of 3xTg-AD mice; format: in vivo, mouse; details: 12-month-old 3xTg-AD mice, 5 mg/kg/day, 2 months
Procedure: (§1) Western blots were probed with antibodies against BACE1 and ADAM10. FIG. 11A is a series of Western blots depicting levels of proADAM10, ADAM10, proBACE, BACE, Presenilin1 and APP-CFTs in brain extracts from ST101 treated 3xTG-AD mice (S) versus control mice (C). C: control brain extract. S: ST101-treated brain extract. Animals were approximately 12 months old at sacrifice after 2 months of treatment with ST101 at 5 mg/kg/day.
(§2) FIG. 11B depicts quantification of the Western blot bands from FIG. 11A by densitometry.

[1] = in vivo
From the text: (§3) On the surface, reduction of alpha-secretase cleavage could be considered an undesirable effect as alpha-secretase cleaves multiple other substrates. Thus, one could hypothesize that reduction of alpha-secretase might cause toxicity. However, ST101 has been proven safe in rodent and monkey toxicity studies of up to 6 months at doses up to approximately 100-fold higher than the ones used in the 3xTg-AD mice. […] This may be due to an incomplete effect of ST101 on alpha-secretases or due to activity of other alpha-secretases compensating for a major effect of ST101 on ADAM10.

3xTg-AD mice = experiment: Morris water maze in 3xTg-AD mice; format: in vivo, mouse; details: 2 months
Procedure: 3xTg-AD mice of approximately one year of age were treated for 2 months with ST101. An average dose of 5 mg/kg/day was administered in drinking water (calculated dose, based on mean water consumption). Behavioral effects were tested by assessing performance on the Morris Water Maze. Biochemical effects were examined by measuring brain content of Aβ and APP by ELISA and Western Blot.
Behavioral Effects: Performance of 3xTg-AD Mice in the Morris Water Maze (MWM), adapted from Roozendaal et al., Proc. Natl. Acad. Sci. U.S.A. 100: 1328-1333 (2003).
The MWM tests both spatial memory (i.e. hippocampus dependent) and cued learning (i.e. non-hippocampal) in rodents. The maze is a circular tank filled with opaque water. Mice are placed in the water and must swim to find and escape onto a platform submerged 1.5 cm beneath the surface of the water. The time (in seconds) required to find the platform is recorded. Animals rely on visual cues in the room containing the tank in order to find the platform on successive challenges. Training was conducted daily for seven consecutive days.
Retention of training was assessed twice, 24 and 72 hours after the final training trial. Animals were subjected to a 60-second free swim in the tank with the platform removed. Parameters measured included (1) latency: time required to reach the former platform location and (2) crosses: the number of times the animal swam across the former platform location.

[2] = cited from earlier work
BACE1 = experiment: Western blot of BACE in brain extracts of 3xTg-AD mice; format: in vivo, mouse; details: 12-month-old 3xTg-AD mice, 5 mg/kg/day, 2 months
Procedure: (§4) APP C-terminal fragments C99 and C83 are created by beta-secretase and alpha-secretase cleavage respectively. The reduction of both C99 and C83 induced by ST101 could therefore be due to reduction or inhibition of secretases. This hypothesis was tested using Western blots of brain extracts from 3xTg-AD mice from the initial experiment in 12-month-old animals treated with ST101 for 2 months. The only beta-secretase is BACE1 and the constitutive alpha-secretase is ADAM10.
as §1, §2

[3] = cited from earlier work; remark: listed apart in the source
ADAM10 = experiment: Western blot of ADAM10 in brain extracts of 3xTg-AD mice; format: in vivo, mouse; details: 12-month-old 3xTg-AD mice, 5 mg/kg/day, 2 months
Procedure: as §4, §1, §2

Aβ1-40 = experiment: Aβ in brain tissue from cynomolgus monkeys; format: in vivo; details: juvenile cynomolgus monkeys, 10 mg/kg/day by naso-gastric tube, 6 months
Procedure: (§5) Brain samples from cynomolgus monkeys were obtained at the conclusion of a six-month chronic toxicity study. The cynomolgus monkeys used in this study were juveniles of less than 4 years of age. ST101 was administered daily for 6 months by naso-gastric tube at 10 mg/kg/day (n=8 per group). Data was generated from 8 treated and 8 control animals. Levels of Aβ1-40 are shown in FIG. 9, which is a bar graph that depicts the effect of ST 101 on Aβ in brain tissue from cynomolgus monkeys. FIG. 9 depicts the amount of levels of Aβ1-40 in monkeys treated with ST 101, relative to control monkeys.

APP = experiment: Western blot of APP and APP C-terminal fragments in brain extracts of 3xTg-AD mice; format: in vivo, mouse; details: 5 mg/kg/day
Procedure: To attempt to determine at what part in the Aβ processing/release pathway ST101 may be active, a series of Western blot analyses of brain extracts from the same mice were conducted. These Westerns blots examined intact APP as well as products of its post-translational processing and subsequent degradation.
FIG. 4 is a Western blot that depicts APP C-terminal fragments detected by antibody CT20 in the brains of ST101-treated (S) 3xTg-AD mice, relative to untreated (C) 3xTg mice-AD.
FIG. 5 is a Western blot that depicts APP and degradation fragments detected by antibody CT20 in the brains of ST101-treated (S) 3xTg-AD mice, relative to untreated (C) 3xTg-AD mice. “CT20” stands for full length APP species, and “Actin” stands for anti-beta-actin antibody as a protein loading control.
FIGS. 10A and 10B are Western blots that depict APP carboxy-terminal fragments detected by antibody CT20 in the brains of ST101-treated (T in FIG. 10A, S in FIG. 10B) 3xTg-AD mice, relative to untreated (C) 3xTg-AD mice. FIG. 10B is from a separate experiment that used the same brain extract used in the experiment for FIG. 10A. Animals were approximately 14.5 months old at sacrifice after 2.5 months of treatment with ST101 at 5 mg/kg/day in drinking water. * denotes a control animal with low levels of CTFs.
FIGS. 10C and 10D are Western blots that depict APP carboxy-terminal fragments detected by an APP C-terminal antibody (Eptitomics #: 15654-1) in the brains of ST101-treated (S) 3xTg-AD mice, relative to untreated (C) 3xTg-AD mice. FIG. 10D is a lighter exposure of the Western blot in FIG. 10C. Animals were approximately 14.5 months old at sacrifice after 2.5 months of treatment with ST101 at 5 mg/kg/day in drinking water.

sAPP-beta = experiment: Western blot of sAPP-beta in brain extracts of 3xTg-AD mice; format: in vivo, mouse; details: 14.5-month-old 3xTg-AD mice, 2 months of treatment, 5 mg/kg/day in drinking water
Procedure: FIG. 10B describes a reduction of fragment C99. C99 is created by BACE cleavage which leads to release of soluble APP, specifically sAPP-beta. […] The Western blot was obtained using an sAPP-beta specific antibody in brain extracts from ST101 treated 3xTG-AD mice (S) versus control mice (C). Animals were approximately 14.5 months old at sacrifice after 2 months of treatment with ST101 at 5 mg/kg/day in drinking water.

ADAM17 (TACE) = experiment: Western blot of TACE in brain extracts of 3xTg-AD mice; format: in vivo, mouse; details: 14.5-month-old 3xTg-AD mice, 2 months of treatment, 5 mg/kg/day in drinking water
Procedure: In addition to ADAM10, ADAM17 (TACE, which is Tumor Necrosis Factor converting enzyme) is known to act as an alpha-secretase of APP. Thus, it was tested in a Western blot whether ST101 reduces levels of ADAM17 (TACE).
The Western blot was obtained using a TACE specific antibody in brain extracts from ST101 treated 3xTG-AD mice (S) versus control mice (C). Animals were approximately 14.5 months old at sacrifice after 2 months of treatment with ST101 at 5 mg/kg/day in drinking water.

tau [4] = experiment: Western blot of tau and phosphorylated tau in brain extracts of 3xTg-AD mice; format: in vivo, mouse; details: overexposed blot, 12-month-old 3xTg-AD mice, 5 mg/kg/day, 2 months
From the text: The status of tau phosphorylation, accumulation and degradation can be assessed in Western blots. Two anti-tau antibodies, directed against non-phosphorylated and phosphorylated tau, were used to probe brain extracts from the initial experiment. FIG. 12 is a series of Western blots depicting levels of full-length tau, tau accumulates, tau degradation products and phosphorylated tau levels in brain extracts from ST101 treated 3xTG-AD mice (S) versus control mice (C). Beta actin levels (Ac) were used as a loading control. P-tau, two panels per antibody: top—normal exposure; bottom—overexposure to visualize minor protein bands. Ac: beta actin antibody as protein loading control. Animals were approximately 12 months old at sacrifice after 2 months of treatment with ST101 at 5 mg/kg/day.

SAMP8 mouse = details: cited from earlier work
tau [5] = experiment: Tau immunohistochemistry with H7 anti-tau antibody in 3xTg-AD mice; format: in vivo, mouse
From the text: The 3xTg-AD mouse model incorporates both pathological hallmarks of Alzheimer's disease: Aβ amyloid plaques and neurofibrillary tangles. Neurofibrillary tangles consist of accumulates of abnormally phosphorylated tau protein. In the 3xTg-AD mice pathological somato-dendritic accumulation of tau can be seen in immunohistochemistry as part of the disease model phenotype.
ST101 effects on tau distribution and accumulation were explored in immunohistochemistry with H7 anti-tau antibody.

Monkey toxicity studies = format: in vivo; details: up to 6 months, doses up to approximately 100-fold higher than in 3xTg-AD mice
Procedure: as §5, §3

[6] = 24 and 72 hours after final training, 5 mg/kg/day
[7] = 14.5-month-old 3xTg-AD mice, 2.5 months
[8] = antibody CT20, 12-month-old 3xTg-AD mice, 2 months

## O=C1N=C2C=CC=CN2C12Cc1ccccc1C2 [ST101, spiro(imidazo(1,2-a)pyridin-2(3H)-one-3,2′-indan)]
Neuro2a cells
  Aβ1-40 in cell culture medium: without major effects
  Aβ1-42 in cell culture medium: significantly reduced
Presenilin 1
  Presenilin 1 level: did not show significant changes
[1]
  safety in toxicity studies: proven safe
3xTg-AD mice; 3xTg-AD mice approx. one year old, 5 mg/kg/day in drinking water, vs control
  latency on successive days of the training: greater reductions in latency
3xTg-AD mice; 3xTg-AD mouse strain, 5 mg/kg/day
  learning and memory performance: improves learning and memory performance
3xTg-AD mice; [6]
  crosses during retention testing: increases in crosses
  latency during retention testing: reductions in latency
[2]; methamphetamine, MK-801, scopolamine
  memory deficits induced by chemical amnesic agents: attenuates
[2]; rodent models
  age-impaired memory: significantly improves
BACE1
  BACE protein level: profound reduction
  Pro-BACE protein level: not significantly affected
[3]; cerebral cortex
  extracellular ACh concentrations: increases
[3]; hippocampus
  extracellular concentrations of both ACh and dopamine: increases
[3]; in vivo
  nicotine-stimulated release of acetylcholine (ACh): potentiates
ADAM10
  ADAM-10 protein level: not significantly affected
  pro-ADAM10 protein level: profound reduction
Aβ1-40
  Aβ1-40 in brain: reduction of Aβ1-40 in animals treated with ST101 that did not reach statistical significance
APP; [7]
  17 kDa fragment: lack of detection
  C99 fragment: much more pronounced; also recorded: reduction
APP; 14.5-month-old 3xTg-AD mice, 2.5 months, compared with 12-month-old mice
  C83 fragment: not reduced to the same degree
APP; [8]
  C83 C-terminal APP fragment: substantial decrease
  C99 C-terminal APP fragment: substantial decrease
  major APP degradation intermediate (~50 kDa): disappearance or significant reduction
  molecular weight of full-length APP species: slightly lowered molecular weight of some full-length species
  novel C-terminal APP fragment of about 17 kDa: appearance
APP; antibody CT20, 14.5-month-old 3xTg-AD mice, 2.5 months
  APP CTFs: significant effect of reduction
sAPP-beta
  sAPP-beta level: concomitant reduction
ADAM17 (TACE)
  TACE level: reduction of TACE levels in the majority of ST101 treated animals
Tau [4]; H7 antibody
  accumulated tau and degradation products: disappearance of accumulated tau and degradation products
Tau [4]; R-p-tau antibody
  phosphorylated tau degradation product: appearance of a new phosphorylated tau degradation product
SAMP8 mouse
  accumulation of Aβ-like deposits in brain tissue: decreased accumulation
  learning and memory functions: improvement
Tau [5]
  neuronal loss, Hematoxylin/Eosin stained control sections: no neuronal loss
Tau [5]; hippocampus, H7 anti-tau antibody
  pathological somato-dendritic tau staining: clear reduction
Monkey toxicity studies
  safety in toxicity studies: proven safe
